# Experiments:
# [1] = target: T1, human sphingosine-1-phosphate receptor 1 (S1P1) (Homo sapiens (Human), UniProt P21453); assay: β-Arrestin2 recruitment assay (PathHunter), S1P1 CHO-K1 cells; assay type: cell-based; details: for Emax: CHO-K1, read-out: hS1P1 B-arrestin2 SPAN; for hS1P1 B-arrestin2 pEC50: β-arrestin2 recruitment, S1P1 CHO-K1 cells
# Method in brief: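 Enzyme-fragment complementation read-out: agonist-driven β-arrestin2 binding to ProLink-tagged human S1P1 in stable CHO-K1 cells restores β-galactosidase, measured 1 h at room temperature after a 60 min 37° C. compound incubation. Potency as pEC50, efficacy relative to fingolimod (SPAN).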
# Target sequence in this assay (P21453 whole entry, looked up, the tested form may be a part): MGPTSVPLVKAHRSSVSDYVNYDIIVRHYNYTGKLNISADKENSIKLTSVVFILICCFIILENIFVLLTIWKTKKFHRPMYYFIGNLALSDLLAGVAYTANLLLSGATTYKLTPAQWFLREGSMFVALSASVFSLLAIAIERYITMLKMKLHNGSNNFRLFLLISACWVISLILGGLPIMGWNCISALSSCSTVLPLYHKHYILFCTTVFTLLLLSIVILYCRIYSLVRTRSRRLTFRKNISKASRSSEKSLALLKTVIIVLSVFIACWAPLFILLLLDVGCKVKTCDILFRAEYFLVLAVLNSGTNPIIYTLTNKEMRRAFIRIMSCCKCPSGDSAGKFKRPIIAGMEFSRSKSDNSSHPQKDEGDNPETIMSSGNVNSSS
# Target sequence in this assay (P32121 whole entry partner, looked up, the tested form may be a part): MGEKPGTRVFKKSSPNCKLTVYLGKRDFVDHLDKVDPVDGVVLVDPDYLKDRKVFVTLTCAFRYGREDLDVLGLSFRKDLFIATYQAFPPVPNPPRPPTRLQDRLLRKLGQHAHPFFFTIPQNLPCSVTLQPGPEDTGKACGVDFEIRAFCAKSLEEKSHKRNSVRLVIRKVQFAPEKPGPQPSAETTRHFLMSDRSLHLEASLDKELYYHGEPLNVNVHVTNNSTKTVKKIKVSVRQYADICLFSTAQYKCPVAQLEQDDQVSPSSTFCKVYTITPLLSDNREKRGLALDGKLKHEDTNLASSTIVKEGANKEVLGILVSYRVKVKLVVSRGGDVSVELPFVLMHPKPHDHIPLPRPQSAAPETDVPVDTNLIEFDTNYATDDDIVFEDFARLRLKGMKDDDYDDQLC
# [2] = target: T1, human sphingosine-1-phosphate receptor 1 (S1P1); assay: Inhibition of cAMP production (HTRF cAMP HiRange), S1P1 CHO-K1 cells; assay type: cell-based; details: for Emax: CHO-K1, read-out: hS1P1 cAMP SPAN; for hS1P1 cAMP pEC50: inhibition of cAMP production, S1P1 CHO-K1 cells
# Method in brief: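 CHO-K1 cells stably co-expressing human S1P1 (C-terminal Prolink tag) and EA-β-arrestin2 were grown in AssayComplete Media 6 at 37° C. and 5% CO2, plated, and incubated overnight. Agonist-driven inhibition of intracellular cAMP was read by TR-FRET with the HTRF cAMP HiRange kit on a PheraStar reader. Potency is pEC50, and efficacy (SPAN) is normalized to fingolimod.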
# Target sequence in this assay (P21453 whole entry, looked up, the tested form may be a part): as the sequence (P21453 whole entry, looked up, the tested form may be a part) above
# [3] = efficacy (SPAN) normalized to fingolimod
Compound,"Emax [1, 3] [%]",hS1P1 B-arrestin2 pEC50 [1],"Emax [2, 3] [%]",hS1P1 cAMP pEC50 [2],"hS1P1 B-arrestin2 SPAN [1, 3]","hS1P1 cAMP SPAN [2, 3]"
"CC(C)CCn1nnc2cc(-c3nc(-c4ccc(C(F)(F)F)c(F)c4)no3)ccc21 [Compound 122, 5-{3-[3-fluoro-4-(trifluoromethyl)phenyl]-1,2,4-oxadiazol-5-yl}-1-(3-methylbutyl)-1H-1,2,3-benzotriazole]",< 75,<5,< 75,<6.5,,
"O=C(O)CCn1nnc2cc(-c3noc(-c4ccccc4Br)n3)ccc21 [Compound 134, 3-(5-(5-(2-bromophenyl)-1,2,4-oxadiazol-3-yl)-1H-benzo[d][1,2,3]triazol-1-yl)propanoic acid]",< 75,<5,< 75,<6.5,,
"CCC1(CC)CC(=O)c2cc(-c3nsc(-c4cccnc4)n3)ccc2O1 [Compound 137, 2,2-diethyl-6-(5-(pyridin-3-yl)-1,2,4-thiadiazol-3-yl)chroman-4-one]",> 75,<5,> 75,>6.5,,
"Cc1ccccc1-c1noc(-c2ccc3c(c2)nnn3CC(C)(C)O)n1 [Compound 139, 2-methyl-1-{5-[3-(2-methylphenyl)-1,2,4-oxadiazol-5-yl]-1H-1,2,3-benzotriazol-1-yl}propan-2-ol]",> 75,>5,> 75,>6.5,,
"Cc1ccsc1-c1noc(-c2ccc3c(c2)nnn3CC(C)(C)O)n1 [Compound 140, 2-methyl-1-{5-[3-(3-methylthiophen-2-yl)-1,2,4-oxadiazol-5-yl]-1H-1,2,3-benzotriazol-1-yl}propan-2-ol]",> 75,>5,> 75,>6.5,,
"COc1ccccc1-c1nnc(-c2ccc3c(c2)nnn3C(C)C)s1 [Compound 144, 5-[5-(2-methoxyphenyl)-1,3,4-thiadiazol-2-yl]-1-(propan-2-yl)-1H-1,2,3-benzotriazole]",,>5,,<6.5,,
"C=CCNc1ccc(-c2nc(-c3ccc4[nH]nnc4c3)no2)cc1C#N [Compound 145, 5-(3-(1H-benzo[d][1,2,3]triazol-5-yl)-1,2,4-oxadiazol-5-yl)-2-(allylamino)benzonitrile]",,>5,,>6.5,,
"CCC1(CC)CC(=O)c2cc(-c3nc(-c4ccnc(F)c4)no3)ccc2O1 [Compound 146, 2,2-diethyl-6-(3-(2-fluoropyridin-4-yl)-1,2,4-oxadiazol-5-yl)chroman-4-one]",< 75,>5,> 75,>6.5,,
"O=C1CC2(CCOCC2)Oc2ccc(-c3nc(-c4ccncc4)no3)cc21 [Compound 148, 6-[3-(pyridin-4-yl)-1,2,4-oxadiazol-5-yl]-3,4-dihydrospiro[1-benzopyran-2,4′-oxane]-4-one]",,<5,,<6.5,,
"CCC1(CC)CC(=O)c2cc(-c3nc(-c4ccc(C(=O)N(C)C)cc4)no3)ccc2O1 [Compound 151, 4-(5-(2,2-diethyl-4-oxochroman-6-yl)-1,2,4-oxadiazol-3-yl)-N,N-dimethylbenzamide]",,<5,,<6.5,>75,>75
"CCC1(CC)CC(=O)c2cc(-c3nc(-c4ccc(NC)cc4)no3)ccc2O1 [Compound 153, 2,2-diethyl-6-(3-(4-(methylamino)phenyl)-1,2,4-oxadiazol-5-yl)chroman-4-one]",< 75,>5,> 75,<6.5,,
"Cc1ccccc1C(C)c1noc(-c2ccc3c(c2)nnn3CC(C)C)n1 (stereo not drawn) [Compound 154, 5-{3-[1-(2-methylphenyl)ethyl]-1,2,4-oxadiazol-5-yl}-1-(2-methylpropyl)-1H-1,2,3-benzotriazole]",,<5,,<6.5,,

# Next, values leading:
"Emax [1, 3] [%]",hS1P1 B-arrestin2 pEC50 [1],"Emax [2, 3] [%]",hS1P1 cAMP pEC50 [2],"hS1P1 B-arrestin2 SPAN [1, 3]","hS1P1 cAMP SPAN [2, 3]",Compound
< 75,<5,< 75,<6.5,,,"COc1cccc(-c2noc(-c3ccc4c(c3)nnn4C3CCCC3)n2)n1 [Compound 124, 1-cyclopentyl-5-[3-(6-methoxypyridin-2-yl)-1,2,4-oxadiazol-5-yl]-1H-1,2,3-benzotriazole]"
< 75,<5,< 75,<6.5,,,"CC(C)n1nnc2cc(-c3noc(C4CCC(F)(F)CC4)n3)ccc21 [Compound 125, 5-[5-(4,4-difluorocyclohexyl)-1,2,4-oxadiazol-3-yl]-1-(propan-2-yl)-1H-1,2,3-benzotriazole]"
< 75,<5,< 75,<6.5,,,"Cc1cc(C)cc(Cc2noc(-c3ccc4c(c3)nnn4C(C)C)n2)c1 [Compound 126, 5-{3-[(3,5-dimethylphenyl)methyl]-1,2,4-oxadiazol-5-yl}-1-(propan-2-yl)-1H-1,2,3-benzotriazole]"
< 75,<5,< 75,<6.5,,,"CC(C)n1nnc2cc(-c3noc(C4CCCCC4)n3)ccc21 [Compound 127, 5-(5-cyclohexyl-1,2,4-oxadiazol-3-yl)-1-(propan-2-yl)-1H-1,2,3-benzotriazole]"
< 75,<5,< 75,<6.5,,,"CC(C)n1nnc2cc(-c3nc(-c4ccc5nncn5c4)no3)ccc21 [Compound 128, 1-(propan-2-yl)-5-(3-{[1,2,4]triazolo[4,3-a]pyridin-6-yl}-1,2,4-oxadiazol-5-yl)-1H-1,2,3-benzotriazole]"
< 75,<5,< 75,<6.5,,,"COc1ccc(-c2noc(-c3ccc4c(c3)nnn4C(C)C)n2)c2ccccc12 [Compound 129, 5-[3-(4-methoxynaphthalen-1-yl)-1,2,4-oxadiazol-5-yl]-1-(propan-2-yl)-1H-1,2,3-benzotriazole]"
< 75,<5,< 75,<6.5,,,"COc1cccc(-c2nc(-c3ccc4c(c3)nnn4C3CCCC3)no2)c1 [Compound 130, 3-(1-cyclopentyl-1H-benzo[d][1,2,3]triazol-5-yl)-5-(3-methoxyphenyl)-1,2,4-oxadiazole]"
< 75,<5,< 75,<6.5,,,"CC(C)n1nnc2cc(-c3noc(-c4ccc(COc5ccccc5)cc4)n3)ccc21 [Compound 131, 3-(1-isopropyl-1H-benzo[d][1,2,3]triazol-5-yl)-5-(4-(phenoxymethyl)phenyl)-1,2,4-oxadiazole]"
> 75,>5,> 75,>6.5,,,"CC(C)n1nnc2cc(-c3nc(-c4ccccc4OC(F)(F)F)no3)ccc21 [Compound 132, 5-(1-isopropyl-1H-benzo[d][1,2,3]triazol-5-yl)-3-(2-(trifluoromethoxy)phenyl)-1,2,4-oxadiazole]"
< 75,<5,< 75,<6.5,,,"Cc1ncc(-c2nc(-c3ccc4c(c3)nnn4C(C)C)no2)nc1C [Compound 133, 5-(5,6-dimethylpyrazin-2-yl)-3-(1-isopropyl-1H-benzo[d][1,2,3]triazol-5-yl)-1,2,4-oxadiazole]"
< 75,<5,< 75,<6.5,,,"CCc1ncc(-c2noc(-c3ccc4c(c3)nnn4C(C)C)n2)cn1 [Compound 135, 5-[3-(2-ethylpyrimidin-5-yl)-1,2,4-oxadiazol-5-yl]-1-(propan-2-yl)-1H-1,2,3-benzotriazole]"
< 75,<5,< 75,<6.5,,,"COc1cc(C)c(-c2noc(-c3ccc4c(c3)nnn4C(C)C)n2)c(OC)c1 [Compound 136, 5-[3-(2,4-dimethoxy-6-methylphenyl)-1,2,4-oxadiazol-5-yl]-1-(propan-2-yl)-1H-1,2,3-benzotriazole]"
> 75,>5,> 75,>6.5,,,"COc1ccccc1-c1nc(-c2ccc3c(c2)nnn3C(C)C)ns1 [Compound 138, 5-[5-(2-methoxyphenyl)-1,2,4-thiadiazol-3-yl]-1-(propan-2-yl)-1H-1,2,3-benzotriazole]"
< 75,<5,< 75,<6.5,,,"CCC1(CC)CC(=O)c2cc(-c3nsc(-c4ccc5c(c4)nnn5C(C)C)n3)ccc2O1 [Compound 143, 2,2-diethyl-6-(5-(1-isopropyl-1H-benzo[d][1,2,3]triazol-5-yl)-1,2,4-thiadiazol-3-yl)chroman-4-one]"
> 75,>5,> 75,>6.5,,,"C=CCNc1ccc(-c2nc(-c3ccc4c(c3)nnn4C(C)C)no2)cc1C#N [Compound 150, 2-(allylamino)-5-(3-(1-isopropyl-1H-benzo[d][1,2,3]triazol-5-yl)-1,2,4-oxadiazol-5-yl)benzonitrile]"
,<5,,<6.5,,,"COc1cc(-c2noc(-c3ccc4c(c3)nnn4C3CC3)n2)ccn1 [Compound 155, 1-cyclopropyl-5-[3-(2-methoxypyridin-4-yl)-1,2,4-oxadiazol-5-yl]-1H-1,2,3-benzotriazole]"

# — patent US11912693B2, “Compounds for modulating S1P1 activity and methods of using the same” (TREVENA, INC., priority 2017, dated 2024)
